Source: ChEMBL document CHEMBL4483862, “Open-source discovery of chemical leads for next-generation chemoprotective antimalarials” (2018)

Test system: Plasmodium berghei
Assay: Luciferase/luciferin-expressing antifolate-resistant parasites were used to infect a culture of HepG2 cells that were pre-incubated with compounds. Infected hepatocytes emit light due to the luciferase reaction. Assay results are presented as the percent inhibition of light emission compared to control. […]
Type: functional
Conditions: sporozoite; for IC90: read-out: LUCIFERASE INFECTION ASSAY - IC90
[1] = read-out: LUCIFERASE INFECTION ASSAY - IC50

## O=C(NCCCc1nc2ccccc2[nH]1)c1[nH]nc2ccccc12
HEPG2TOX_HILL_SLOPE 1.95, 1.49, HEPG2TOX_R_SQUARED 0.808, 0.974, PBLUC_HILL_SLOPE 11.3, 2.85, PBLUC_R_SQUARED 0.579, 0.589, read-out: LUCIFERASE INFECTION ASSAY - IC50
  IC50: 0.947 µM
  IC90: 1.48 µM

## CC(C)S(=O)(=O)c1cscc1NC(=O)c1ccc(-c2cc(C(F)(F)F)nn2C)s1
PBLUC_HILL_SLOPE 12.2, PBLUC_R_SQUARED 0.329, read-out: LUCIFERASE INFECTION ASSAY - IC50
  IC50: 6.55 µM
  IC90: > 7.12 µM

## O=C(Nc1ccccc1)N1CCc2sccc2C1c1ccc(C(F)(F)F)cc1 (stereo not drawn)
PBLUC_HILL_SLOPE 6.19, PBLUC_R_SQUARED 0.577, read-out: LUCIFERASE INFECTION ASSAY - IC50
  IC50: 4.16 µM
  IC90: 5.93 µM

## Cn1nc(C(F)(F)F)cc1-c1ccc(/C=C(\C#N)S(=O)(=O)c2ccc(Cl)cc2)s1
FFLUC_HILL_SLOPE 11.9, FFLUC_R_SQUARED 0.391, read-out: LUCIFERASE INFECTION ASSAY - IC50
  IC50: > 7.21 µM
  IC90: > 7.21 µM

## Cc1ccc2nc(NC(=O)c3ccc(OCc4nccn4C)cc3)sc2c1
[1]
  IC50: > 10 µM
  IC90: > 10 µM

## Cc1csc2sc(/C=N/Cc3cccs3)c(C)c12
[1]
  IC50: > 11.3 µM
  IC90: > 11.3 µM

## OC(CSc1nnc(CNc2cccc(C(F)(F)F)c2)n1C1CCCCC1)c1ccccc1 (stereo not drawn)
HEPG2TOX_HILL_SLOPE 0.64, HEPG2TOX_R_SQUARED 0.795, PBLUC_HILL_SLOPE 0.508, PBLUC_R_SQUARED 0.492, read-out: LUCIFERASE INFECTION ASSAY - IC50
  IC50: 1.13 µM
  IC90: > 10 µM

## Cc1cc(O)c(C(=O)/C=C/c2cccc(C(F)(F)F)c2)c(=O)o1
FFLUC_HILL_SLOPE 56.9, FFLUC_R_SQUARED 0.7, read-out: LUCIFERASE INFECTION ASSAY - IC50
  IC50: > 10 µM
  IC90: > 10 µM

## COCC(C)n1c(C)cc(C(=O)COC(=O)c2ccccc2SCC(=O)NC2CCCCCCC2)c1C (stereo not drawn)
FFLUC_HILL_SLOPE 1.67, FFLUC_R_SQUARED 0.346, PBLUC_HILL_SLOPE 7.4, PBLUC_R_SQUARED 0.408, read-out: LUCIFERASE INFECTION ASSAY - IC50
  IC50: 3.9 µM
  IC90: 5.25 µM

## O=C(Cc1cccs1)Nc1ccc(Cl)c(C(F)(F)F)c1
[1]
  IC50: > 10 µM
  IC90: > 10 µM

## Cc1nn(-c2ccccc2)c(Oc2ccc(Br)cc2)c1CNC1CCC(O)CC1 (stereo not drawn)
[1]
  IC50: > 10 µM
  IC90: > 10 µM

## O=C(C1=NNCC1c1ccccc1)c1cc2ccccc2c2ccccc12 (stereo not drawn)
HEPG2TOX_HILL_SLOPE 2.61, HEPG2TOX_R_SQUARED 0.965, PBLUC_HILL_SLOPE 1.24, PBLUC_R_SQUARED 0.535, read-out: LUCIFERASE INFECTION ASSAY - IC50
  IC50: 3.17 µM
  IC90: > 9.42 µM

## Cc1cc(C(=O)OCC(=O)N(CCC#N)c2ccc(F)cc2)c2ccccc2n1
[1]
  IC50: > 10 µM
  IC90: > 10 µM

## CN(Cc1ccccc1N1CCCCC1)C(=O)c1ccc(NC(=O)C2CC2)cc1
[1]
  IC50: 2.9 µM
  IC90: 3.37 µM

## Cc1ccccc1-c1cnc2cnc(-c3ccc(CNc4ccccc4)cc3)cn12
PBLUC_HILL_SLOPE 14.2, PBLUC_R_SQUARED 0.506, read-out: LUCIFERASE INFECTION ASSAY - IC50
  IC50: 8.05 µM
  IC90: > 8.45 µM

## CCOC(=O)c1c(S(=O)(=O)Nc2ccccc2Cl)c(-c2ccccc2)n(-c2ccccc2)c1C
[1]
  IC50: > 6.67 µM
  IC90: > 6.67 µM

## Cn1c(-c2ccccc2)c(C(Nc2ccccn2)c2ccccc2O)c2ccccc21 (stereo not drawn)
FFLUC_HILL_SLOPE 22.7, FFLUC_R_SQUARED 0.0514, read-out: LUCIFERASE INFECTION ASSAY - IC50
  IC50: > 10 µM
  IC90: > 10 µM

## Cc1ccccc1CN1CCN2C(C(=O)NCc3cccc(Cl)c3)=COC2=NC1=O
[1]
  IC50: > 10 µM
  IC90: > 10 µM

## CC(C)n1c(Sc2ncc([N+](=O)[O-])s2)nc2cc(C(F)(F)F)ccc21
FFLUC_HILL_SLOPE 0.818, FFLUC_R_SQUARED 0.623, HEPG2TOX_HILL_SLOPE 9.88, HEPG2TOX_R_SQUARED 0.799, PBLUC_HILL_SLOPE 37.4, PBLUC_R_SQUARED 0.0575, read-out: LUCIFERASE INFECTION ASSAY - IC50
  IC50: 5.8 µM
  IC90: 6.15 µM

## Cc1nn(-c2ccccc2)c2c1C(c1cccnc1)C(c1nc3ccccc3s1)C(c1ccccc1)=N2 (stereo not drawn)
FFLUC_HILL_SLOPE 3.11, FFLUC_R_SQUARED 0.548, read-out: LUCIFERASE INFECTION ASSAY - IC50
  IC50: > 10 µM
  IC90: > 10 µM

## CCc1c(C)sc2[nH]c(-c3ccc(C(=O)N4CCN(S(=O)(=O)c5c(Cl)cccc5Cl)CC4)cc3)nc(=O)c12
PBLUC_HILL_SLOPE 2.05, PBLUC_R_SQUARED 0.76, read-out: LUCIFERASE INFECTION ASSAY - IC50
  IC50: 1.49 µM
  IC90: 4.36 µM

## O=S(=O)(Nc1cccc2cccnc12)c1cc(Cl)c(Cl)cc1Cl
PBLUC_HILL_SLOPE 9.06, PBLUC_R_SQUARED 0.472, read-out: LUCIFERASE INFECTION ASSAY - IC50
  IC50: > 8.51 µM
  IC90: > 8.51 µM

## CCOC(=O)c1[nH]c(C)c(C(=O)CN(C)S(=O)(=O)c2c(C)noc2C)c1C
PBLUC_HILL_SLOPE 16.9, PBLUC_R_SQUARED 0.509, read-out: LUCIFERASE INFECTION ASSAY - IC50
  IC50: 3.28 µM
  IC90: 3.73 µM

## CN(C)c1ccccc1-c1cnc2sc(NC3CCC(O)CC3)nn12 (stereo not drawn)
[1]
  IC50: 8.17 µM
  IC90: > 9.23 µM

## CCNC(=S)N/N=C1\C(=O)Nc2ccc(C(C)C)cc21
[1]
  IC50: 4.21 µM
  IC90: 7.94 µM

## N#CCCN(Cc1ccco1)C(=O)Cn1ncc(Cl)c(Cl)c1=O
PBLUC_HILL_SLOPE 3.57, PBLUC_R_SQUARED 0.442, read-out: LUCIFERASE INFECTION ASSAY - IC50
  IC50: 8.27 µM
  IC90: > 10 µM

## CC1CC(C)CN(S(=O)(=O)N2CCN(c3ccc(C(F)(F)F)cc3[N+](=O)[O-])CC2)C1 (stereo not drawn)
[1]
  IC50: > 10 µM
  IC90: > 10 µM

## O=C(NCc1ccc(C(F)(F)F)cc1)Nc1cccc2cnccc12
HEPG2TOX_HILL_SLOPE 1.51, HEPG2TOX_R_SQUARED 0.691, read-out: LUCIFERASE INFECTION ASSAY - IC50
  IC50: > 10 µM
  IC90: > 10 µM

## Cc1cc(C)c(S(=O)(=O)Nc2cc(C)nn2-c2ccccn2)c(C)c1
HEPG2TOX_HILL_SLOPE 1.93, HEPG2TOX_R_SQUARED 0.937, PBLUC_HILL_SLOPE 16.1, PBLUC_R_SQUARED 0.725, read-out: LUCIFERASE INFECTION ASSAY - IC50
  IC50: 2.86 µM
  IC90: 3.28 µM

## Nc1c(C(=O)c2ccc3c(c2)NC(=O)CO3)sc2c1c(=O)[nH]c(=O)n2Cc1ccccc1
HEPG2TOX_HILL_SLOPE 15, HEPG2TOX_R_SQUARED 0.948, PBLUC_HILL_SLOPE 0.935, PBLUC_R_SQUARED 0.804, read-out: LUCIFERASE INFECTION ASSAY - IC50
  IC50: 1.58 µM
  IC90: > 10 µM

## CSc1sc(C(=O)OC2CCCCC2)c2c1C(=O)CC(C)(C)C2
FFLUC_HILL_SLOPE 35.3, FFLUC_R_SQUARED 0.0335, read-out: LUCIFERASE INFECTION ASSAY - IC50
  IC50: > 9.36 µM
  IC90: > 9.36 µM

## CCn1nc(C(=O)NCc2ccc(OC)cc2)c2c1CCN(C(=O)c1cc(C)n[nH]1)C2
PBLUC_HILL_SLOPE 2.57, PBLUC_R_SQUARED 0.68, read-out: LUCIFERASE INFECTION ASSAY - IC50
  IC50: 1.57 µM
  IC90: 3.69 µM

## Cc1ccc(S(=O)(=O)NC(=O)c2ccc(Cl)nc2Cl)cc1
[1]
  IC50: > 10 µM
  IC90: > 10 µM

## CC(c1ccc(-n2cncn2)cc1)N(C)c1ccc2nnnn2n1 (stereo not drawn)
[1]
  IC50: > 10 µM
  IC90: > 10 µM

## COc1ccc(NS(=O)(=O)c2cc(NCc3ccccc3C)cc(C(=O)NCCN(C)C)c2)cc1
HEPG2TOX_HILL_SLOPE 13.2, HEPG2TOX_R_SQUARED 0.729, PBLUC_HILL_SLOPE 3.39, PBLUC_R_SQUARED 0.479, read-out: LUCIFERASE INFECTION ASSAY - IC50
  IC50: 4.55 µM
  IC90: > 6.64 µM

## COc1ccc(CNc2nc3cnc(Nc4ccc(OC(F)(F)F)cc4)cc3n2C)cc1OC
[1]
  IC50: > 10 µM
  IC90: > 10 µM

## Cn1cc(S(=O)(=O)Nc2cccc(CN3C(=O)CNC3=O)c2)cc1C(N)=O
[1]
  IC50: > 10 µM
  IC90: > 10 µM

## Cc1ccc2nc(NC(=O)c3ccc(C#N)cc3)c(C(=O)NC3CCCC3)n2c1
FFLUC_HILL_SLOPE 93.7, FFLUC_R_SQUARED 0.282, HEPG2TOX_HILL_SLOPE 0.845, HEPG2TOX_R_SQUARED 0.968, PBLUC_HILL_SLOPE 14.4, PBLUC_R_SQUARED 0.874, read-out: LUCIFERASE INFECTION ASSAY - IC50
  IC50: 0.288 µM
  IC90: 0.336 µM

## COC(=O)c1ccc(N2CCN(c3ccccc3Cl)CC2)nc1
HEPG2TOX_HILL_SLOPE 4.29, HEPG2TOX_R_SQUARED 0.95, PBLUC_HILL_SLOPE 9.99, PBLUC_R_SQUARED 0.342, read-out: LUCIFERASE INFECTION ASSAY - IC50
  IC50: 8.41 µM
  IC90: > 9.95 µM

## Cc1ccc2nc(NC(=O)c3cc(F)ccc3F)c(C(=O)NCC(C)C)n2c1
HEPG2TOX_HILL_SLOPE 8.58, HEPG2TOX_R_SQUARED 0.935, PBLUC_HILL_SLOPE 15.1, PBLUC_R_SQUARED 0.738, read-out: LUCIFERASE INFECTION ASSAY - IC50
  IC50: 2.71 µM
  IC90: 3.13 µM

## O=C(CC12CC3CC(CC(C3)C1)C2)NN=CC1C(=O)N(Cc2ccccc2)C(=O)c2ccccc21 (stereo not drawn)
[1]
  IC50: > 10 µM
  IC90: > 10 µM

## Cc1cc(NC(=O)CNC(c2ccc(C3CCCCC3)cc2)C(C)C)n(C2CCS(=O)(=O)C2)n1 (stereo not drawn)
PBLUC_HILL_SLOPE 35.5, PBLUC_R_SQUARED 0.454, read-out: LUCIFERASE INFECTION ASSAY - IC50
  IC50: 9.31 µM
  IC90: 9.9 µM

## FC(F)(F)c1ccc(C2c3ccsc3CCN2C(=S)Nc2ccc(Cl)cc2Cl)cc1 (stereo not drawn)
[1]
  IC50: 4.24 µM
  IC90: > 6.77 µM

## O=C(N/N=C/c1ccccc1C(F)(F)F)c1[nH]c2ccccc2c1-c1ccccc1
FFLUC_HILL_SLOPE 16.3, FFLUC_R_SQUARED 0.334, HEPG2TOX_HILL_SLOPE 1.94, HEPG2TOX_R_SQUARED 0.976, PBLUC_HILL_SLOPE 7.87, PBLUC_R_SQUARED 0.839, read-out: LUCIFERASE INFECTION ASSAY - IC50
  IC50: 0.813 µM
  IC90: 1.07 µM
